Values of other authors in US20060155301A1, “Methods and devices usable in eye surgery” (priority 2002, published 2006).
Where two headings read alike, the source gives them in different places.

B1: trypsin (protein, UniProt P00760 24-246, looked up)
Serine protease 1: IVGGYTCGANTVPYQVSLNSGYHFCGGSLINSQWVVSAAHCYKSGIQVRLGEDNINVVEGNEQFISASKSIVHPSYNSNTLNNDIMLIKLKSAASLNSRVASISLPTSCASAGTQCLISGWGNTKSSGTSYPDVLKCLKAPILSDSSCKSAYPGQITSNMFCAGYLEGGKDSCQGDSGGPVVCSGKLQGIVSWGSGCAQKNKPGVYTKVCNYVSWIKQTIASN
notes: enzyme evaluated for separation of lens epithelial cells

Key:
[1] = test system: lens epithelial cells; settings: in vitro
[2] = test system: lens epithelial cells; settings: EDTA solution in irrigation solution, cadaver eyes
[3] = test system: lens epithelial cells; settings: 2% trypsin solution in irrigation solution, cadaver eyes

| Molecule | inhibiting lens epithelial cells proliferation [1] | further results |
| --- | --- | --- |
| CC(=O)O[C@H]1C(=O)[C@@]2(C)[C@H]([C@H](OC(=O)c3ccccc3)[C@]3(O)C[C@H](OC(=O)[C@H](O)[C@@H](NC(=O)c4ccccc4)c4ccccc4)C(C)=C1C3(C)C)[C@]1(OC(C)=O)CO[C@@H]1C[C@@H]2O [taxol] | effective | – |
| O=c1[nH]cc(F)c(=O)[nH]1 [5 fluorouracil] | effective | – |
| CN(Cc1cnc2nc(N)nc(N)c2n1)c1ccc(C(=O)N[C@@H](CCC(=O)O)C(=O)O)cc1 [methotrexate] | effective | – |
| COc1cccc2c1C(=O)c1c(O)c3c(c(O)c1C2=O)C[C@@](O)(C(C)=O)C[C@@H]3O[C@H]1C[C@H](N)[C@H](O)[C@H](C)O1 [daunomycin/daunorubicin] | effective | – |
| O=C(O)CN(CCN(CC(=O)O)CC(=O)O)CC(=O)O [EDTA, Ethylenediamine tetraacetic acid] | – | separation of lens epithelial cells [2]: the anterior lens epithelial cells could be separated |
| COc1cc2c(c(OC)c1OC)-c1ccc(OC)c(=O)cc1[C@@H](NC(C)=O)CC2 [colchicines] | effective | – |
| COc1cccc2c1C(=O)c1c(O)c3c(c(O)c1C2=O)C[C@@](O)(C(=O)CO)C[C@@H]3O[C@H]1C[C@H](N)[C@H](O)[C@H](C)O1 [doxorubicin] | effective | – |
| CO[C@@]12[C@H](COC(N)=O)C3=C(C(=O)C(C)=C(N)C3=O)N1C[C@@H]1N[C@@H]12 [mitomycin] | effective | – |
| B1 | – | damage to the zonules [3]: the zonules were damaged; separation of lens epithelial cells [3]: lens epithelial cells were stripped in places |
